Measured values reported in the supplement of paper PMC8882468.

Each molecule was assayed on HCI-024 (organoid from a breast cancer xenograft) (assay: CTG-3D luminescence at 96 h relative to day-0 seeding control (ratio to day 0); higher = more growth / less cytotoxicity; PDxO 3D drug screen, 96 h, CTG-3D normalised to day-0 seeding control.). Conditions: 12.5 pM; days in culture: 105.

Structure (SMILES)	CTG-3D luminescence at 96 h
COc1cc2c(Oc3ccc4[nH]c(C)cc4c3F)ncnc2cc1OCCCN1CCCC1 [cediranib]	1.09
CC(C)n1nc(-c2ccc3oc(N)nc3c2)c2c(N)ncnc21 [sapanisertib]	1.5
Cc1cc(Nc2ncnc3ccc(NC4=NC(C)(C)CO4)cc23)ccc1Oc1ccn2ncnc2c1 [tucatinib]	1.67
C[C@H](NC(=O)CCC(F)(F)F)C(=O)N[C@@H]1C(=O)N(CCO)c2ncccc2-c2ccccc21 [crenigacestat]	1.19
C[C@]12CC[C@@H]3c4ccc(O)cc4C[C@@H](CCCCCCCCC[S+]([O-])CCCC(F)(F)C(F)(F)F)[C@H]3[C@@H]1CC[C@@H]2O (stereo partly specified) [fulvestrant]	1.45
O=C(c1ccc(F)c(F)c1Nc1ccc(I)cc1F)N1CC(O)([C@@H]2CCCCN2)C1 [cobimetinib]	1.71
O=C(/C=C/c1cccnc1)NCCCCC1CCN(C(=O)c2ccccc2)CC1 [FK866]	1.87
CS(=O)(=O)c1ccc(C(=O)Nc2ccc(Cl)c(-c3ccccn3)c2)c(Cl)c1 [vismodegib]	1.78
C=CCn1c(=O)c2cnc(Nc3ccc(N4CCN(C)CC4)cc3)nc2n1-c1cccc(C(C)(C)O)n1 [adavosertib]	1.61

Same assay, conditions: 12.5 pM; days in culture: 122

Structure (SMILES)	CTG-3D luminescence at 96 h
COc1cc2c(Oc3ccc4[nH]c(C)cc4c3F)ncnc2cc1OCCCN1CCCC1 [cediranib]	1.5
CC(C)n1nc(-c2ccc3oc(N)nc3c2)c2c(N)ncnc21 [sapanisertib]	2.28
Cc1cc(Nc2ncnc3ccc(NC4=NC(C)(C)CO4)cc23)ccc1Oc1ccn2ncnc2c1 [tucatinib]	1.99
C[C@H](NC(=O)CCC(F)(F)F)C(=O)N[C@@H]1C(=O)N(CCO)c2ncccc2-c2ccccc21 [crenigacestat]	1.95
C[C@]12CC[C@@H]3c4ccc(O)cc4C[C@@H](CCCCCCCCC[S+]([O-])CCCC(F)(F)C(F)(F)F)[C@H]3[C@@H]1CC[C@@H]2O (stereo partly specified) [fulvestrant]	2.08
O=C(c1ccc(F)c(F)c1Nc1ccc(I)cc1F)N1CC(O)([C@@H]2CCCCN2)C1 [cobimetinib]	2.66
O=C(/C=C/c1cccnc1)NCCCCC1CCN(C(=O)c2ccccc2)CC1 [FK866]	2.43
CS(=O)(=O)c1ccc(C(=O)Nc2ccc(Cl)c(-c3ccccn3)c2)c(Cl)c1 [vismodegib]	1.39
C=CCn1c(=O)c2cnc(Nc3ccc(N4CCN(C)CC4)cc3)nc2n1-c1cccc(C(C)(C)O)n1 [adavosertib]	1.86

Same assay, conditions: 12.5 pM; days in culture: 163

Structure (SMILES)	CTG-3D luminescence at 96 h
COc1cc2c(Oc3ccc4[nH]c(C)cc4c3F)ncnc2cc1OCCCN1CCCC1 [cediranib]	2.12
CC(C)n1nc(-c2ccc3oc(N)nc3c2)c2c(N)ncnc21 [sapanisertib]	2.15
Cc1cc(Nc2ncnc3ccc(NC4=NC(C)(C)CO4)cc23)ccc1Oc1ccn2ncnc2c1 [tucatinib]	1.68
C[C@H](NC(=O)CCC(F)(F)F)C(=O)N[C@@H]1C(=O)N(CCO)c2ncccc2-c2ccccc21 [crenigacestat]	1.93
C[C@]12CC[C@@H]3c4ccc(O)cc4C[C@@H](CCCCCCCCC[S+]([O-])CCCC(F)(F)C(F)(F)F)[C@H]3[C@@H]1CC[C@@H]2O (stereo partly specified) [fulvestrant]	1.83
O=C(c1ccc(F)c(F)c1Nc1ccc(I)cc1F)N1CC(O)([C@@H]2CCCCN2)C1 [cobimetinib]	1.51
O=C(/C=C/c1cccnc1)NCCCCC1CCN(C(=O)c2ccccc2)CC1 [FK866]	1.91
CS(=O)(=O)c1ccc(C(=O)Nc2ccc(Cl)c(-c3ccccn3)c2)c(Cl)c1 [vismodegib]	1.93
C=CCn1c(=O)c2cnc(Nc3ccc(N4CCN(C)CC4)cc3)nc2n1-c1cccc(C(C)(C)O)n1 [adavosertib]	2.11

Same assay, conditions: 0.00025 µM; days in culture: 105

Structure (SMILES)	CTG-3D luminescence at 96 h
COc1cc2c(Oc3ccc4[nH]c(C)cc4c3F)ncnc2cc1OCCCN1CCCC1 [cediranib]	1.54
CC(C)n1nc(-c2ccc3oc(N)nc3c2)c2c(N)ncnc21 [sapanisertib]	1.82
Cc1cc(Nc2ncnc3ccc(NC4=NC(C)(C)CO4)cc23)ccc1Oc1ccn2ncnc2c1 [tucatinib]	1.75
C[C@H](NC(=O)CCC(F)(F)F)C(=O)N[C@@H]1C(=O)N(CCO)c2ncccc2-c2ccccc21 [crenigacestat]	1.65
C[C@]12CC[C@@H]3c4ccc(O)cc4C[C@@H](CCCCCCCCC[S+]([O-])CCCC(F)(F)C(F)(F)F)[C@H]3[C@@H]1CC[C@@H]2O (stereo partly specified) [fulvestrant]	1.55
O=C(c1ccc(F)c(F)c1Nc1ccc(I)cc1F)N1CC(O)([C@@H]2CCCCN2)C1 [cobimetinib]	1.74
O=C(/C=C/c1cccnc1)NCCCCC1CCN(C(=O)c2ccccc2)CC1 [FK866]	1.72
CS(=O)(=O)c1ccc(C(=O)Nc2ccc(Cl)c(-c3ccccn3)c2)c(Cl)c1 [vismodegib]	1.57
C=CCn1c(=O)c2cnc(Nc3ccc(N4CCN(C)CC4)cc3)nc2n1-c1cccc(C(C)(C)O)n1 [adavosertib]	1.66
